According to PubChem BioAssay AID1745844 (Carcinogenic Potency Database (CPDB), 2022):
Several values for one entry are separate records, joined by “and”; a condition that tells them apart may be missing. Equal values may be shown once. Activity calls are given as the source filed them. How the calls were made is not given here.

Test system: rodent lifetime carcinogenesis bioassay, tumor incidence TD50
Test: carcinogenic potency in animals, long-term in vivo studies, CPDB compilation (AID 1745844)

Work on `[O-][Br+2]([O-])O` yielded a TD50 (hamster, strain Syrian Golden, males, in drinking water, site: kidney, lesion: renal-cell tumor, dosed 89 weeks, study length 89 weeks) of 533 mg/kg/day, a TD50 (mouse, strain B6C3F1, females, in drinking water, site: any site (literature study), lesion: several types, types named in the paper, dosed 78 weeks, study length 104 weeks) of 477 mg/kg/day and a TD50 (mouse, strain B6C3F1, females, in drinking water, site: liver, lesion: adenoma, dosed 78 weeks, study length 104 weeks) of 1180 mg/kg/day. The TD50 (mouse, strain B6C3F1, females, in drinking water, site: liver, lesion: several types, types named in the paper, dosed 78 weeks, study length 104 weeks) was 1710 mg/kg/day, the TD50 (mouse, strain B6C3F1, females, in drinking water, site: lung, lesion: adenoma, dosed 78 weeks, study length 104 weeks) was 2030 mg/kg/day and the TD50 (mouse, strain B6C3F1, females, in drinking water, site: lung, lesion: several types, types named in the paper, dosed 78 weeks, study length 104 weeks) was 1050 mg/kg/day. The TD50 (mouse, strain B6C3F1, males, in drinking water, site: kidney, lesion: renal-cell carcinoma, dosed 100 weeks, study length 100 weeks) was 92.5 mg/kg/day, the TD50 (mouse, strain B6C3F1, males, in drinking water, site: kidney, lesion: several types, types named in the paper, dosed 100 weeks, study length 100 weeks) was 53.8 mg/kg/day and the TD50 (mouse, strain Theiller's Original, females, in feed, site: liver, lesion: hemangioma, dosed 80 weeks, study length 80 weeks) was 347 mg/kg/day (inactive). The carcinogen call (mouse, strain Theiller's Original, males, in feed, site: any site (literature study), lesion: malignant tumor, dosed 80 weeks, study length 80 weeks) was “negative (inactive)”, the carcinogen call (mouse, strain Theiller's Original, males, in feed, site: liver, lesion: one or several types, types not named, dosed 80 weeks, study length 80 weeks) was “negative (inactive)” and the TD50 (rat, strain F344/DuCrj, males, in drinking water, site: kidney, lesion: adenocarcinoma, dosed 26 weeks, study length 104 weeks) was 79.2 mg/kg/day. The TD50 (rat, strain F344/DuCrj, males, in drinking water, site: kidney, lesion: adenocarcinoma, dosed 39 weeks, study length 104 weeks) was 16.9 mg/kg/day, the TD50 (rat, strain F344/DuCrj, males, in drinking water, site: kidney, lesion: adenocarcinoma, dosed 52 weeks, study length 104 weeks) was 35.5 mg/kg/day and the TD50 (rat, strain F344/DuCrj, males, in drinking water, site: kidney, lesion: adenocarcinoma, dosed 104 weeks, study length 104 weeks) was 105 mg/kg/day and 224 mg/kg/day. For the same compound, the TD50 (rat, strain F344/DuCrj, males, in drinking water, site: kidney, lesion: adenoma, dosed 26 weeks, study length 104 weeks) was 6.67 mg/kg/day, the TD50 (rat, strain F344/DuCrj, males, in drinking water, site: kidney, lesion: adenoma, dosed 39 weeks, study length 104 weeks) was 5.57 mg/kg/day and the TD50 (rat, strain F344/DuCrj, males, in drinking water, site: kidney, lesion: adenoma, dosed 52 weeks, study length 52 weeks) was 4.98 mg/kg/day. For the same compound, the TD50 (rat, strain F344/DuCrj, males, in drinking water, site: kidney, lesion: adenoma, dosed 52 weeks, study length 104 weeks) was 10.1 mg/kg/day, the TD50 (rat, strain F344/DuCrj, males, in drinking water, site: kidney, lesion: adenoma, dosed 104 weeks, study length 104 weeks) was 48 mg/kg/day and 35.7 mg/kg/day and the TD50 (rat, strain F344/DuCrj, males, in drinking water, site: kidney, lesion: renal-cell tumor, dosed 104 weeks, study length 104 weeks) was 28.9 mg/kg/day. The TD50 (rat, strain F344/DuCrj, males, in drinking water, site: kidney, lesion: several types, types named in the paper, dosed 26 weeks, study length 104 weeks) was 6.67 mg/kg/day, the TD50 (rat, strain F344/DuCrj, males, in drinking water, site: kidney, lesion: several types, types named in the paper, dosed 39 weeks, study length 104 weeks) was 4.81 mg/kg/day and the TD50 (rat, strain F344/DuCrj, males, in drinking water, site: kidney, lesion: several types, types named in the paper, dosed 52 weeks, study length 104 weeks) was 8.32 mg/kg/day. For the same compound, the TD50 (rat, strain F344/DuCrj, males, in drinking water, site: kidney, lesion: several types, types named in the paper, dosed 104 weeks, study length 104 weeks) was 28.7 mg/kg/day, the TD50 (rat, strain F344/DuCrj, males, in drinking water, site: liver, lesion: neoplastic nodule, dosed 104 weeks, study length 104 weeks) was 53.2 mg/kg/day and the TD50 (rat, strain F344/DuCrj, males, in drinking water, site: peritoneum, lesion: mesothelioma, dosed 26 weeks, study length 104 weeks) was 7.84 mg/kg/day. It also gave a TD50 (rat, strain F344/DuCrj, males, in drinking water, site: peritoneum, lesion: mesothelioma, dosed 39 weeks, study length 104 weeks) of 14 mg/kg/day, a TD50 (rat, strain F344/DuCrj, males, in drinking water, site: peritoneum, lesion: mesothelioma, dosed 52 weeks, study length 52 weeks) of 25.6 mg/kg/day and a TD50 (rat, strain F344/DuCrj, males, in drinking water, site: peritoneum, lesion: mesothelioma, dosed 52 weeks, study length 104 weeks) of 19.4 mg/kg/day. For the same compound, the TD50 (rat, strain F344/DuCrj, males, in drinking water, site: peritoneum, lesion: mesothelioma, dosed 104 weeks, study length 104 weeks) was 12.4 mg/kg/day and 19.5 mg/kg/day, the TD50 (rat, strain F344/DuCrj, males, in drinking water, site: thyroid gland, lesion: follicular-cell adenoma, dosed 104 weeks, study length 104 weeks) was 59.5 mg/kg/day and the TD50 (rat, strain F344/DuCrj, males, in drinking water, site: thyroid gland, lesion: follicular-cell tumor, dosed 26 weeks, study length 104 weeks) was 11.3 mg/kg/day. For the same compound, the TD50 (rat, strain F344/DuCrj, males, in drinking water, site: thyroid gland, lesion: follicular-cell tumor, dosed 52 weeks, study length 104 weeks) was 19.4 mg/kg/day, the TD50 (rat, strain F344/DuCrj, males, in drinking water, site: thyroid gland, lesion: follicular-cell tumor, dosed 104 weeks, study length 104 weeks) was 39.8 mg/kg/day and 54.7 mg/kg/day and the TD50 (rat, strain Fischer 344, females, in drinking water, site: any site (literature study), lesion: several types, types named in the paper, dosed 110 weeks, study length 111 weeks) was 9.05 mg/kg/day. The TD50 (rat, strain Fischer 344, females, in drinking water, site: kidney, lesion: adenocarcinoma, dosed 110 weeks, study length 111 weeks) was 16.4 mg/kg/day, the TD50 (rat, strain Fischer 344, females, in drinking water, site: kidney, lesion: adenoma, dosed 110 weeks, study length 111 weeks) was 87.5 mg/kg/day and the TD50 (rat, strain Fischer 344, females, in drinking water, site: kidney, lesion: several types, types named in the paper, dosed 110 weeks, study length 111 weeks) was 13.7 mg/kg/day. The TD50 (rat, strain Fischer 344, females, in drinking water, site: thyroid gland, lesion: several types, types named in the paper, dosed 110 weeks, study length 111 weeks) was 97.6 mg/kg/day, the TD50 (rat, strain Fischer 344, males, in drinking water, site: kidney, lesion: adenocarcinoma, dosed 110 weeks, study length 111 weeks) was 12.6 mg/kg/day and the TD50 (rat, strain Fischer 344, males, in drinking water, site: kidney, lesion: adenoma, dosed 110 weeks, study length 111 weeks) was 46.2 mg/kg/day. For the same compound, the TD50 (rat, strain Fischer 344, males, in drinking water, site: kidney, lesion: renal-cell adenoma, dosed 52 weeks, study length 52 weeks) was 16.7 mg/kg/day, the TD50 (rat, strain Fischer 344, males, in drinking water, site: kidney, lesion: renal-cell adenoma, dosed 77 weeks, study length 77 weeks) was 15.3 mg/kg/day and the TD50 (rat, strain Fischer 344, males, in drinking water, site: kidney, lesion: renal-cell adenoma, dosed 100 weeks, study length 100 weeks) was 31.1 mg/kg/day. For the same compound, the TD50 (rat, strain Fischer 344, males, in drinking water, site: kidney, lesion: renal-cell carcinoma, dosed 100 weeks, study length 100 weeks) was 62.2 mg/kg/day, the TD50 (rat, strain Fischer 344, males, in drinking water, site: kidney, lesion: several types, types named in the paper, dosed 100 weeks, study length 100 weeks) was 20.8 mg/kg/day and the TD50 (rat, strain Fischer 344, males, in drinking water, site: kidney, lesion: several types, types named in the paper, dosed 110 weeks, study length 111 weeks) was 9.62 mg/kg/day. The TD50 (rat, strain Fischer 344, males, in drinking water, site: liver, lesion: several types, types named in the paper, dosed 110 weeks, study length 111 weeks) was 164 mg/kg/day, the TD50 (rat, strain Fischer 344, males, in drinking water, site: peritoneum, lesion: mesothelioma, dosed 110 weeks, study length 111 weeks) was 25.3 mg/kg/day and the TD50 (rat, strain Fischer 344, males, in drinking water, site: thyroid gland, lesion: follicular-cell adenoma, dosed 100 weeks, study length 100 weeks) was 35.2 mg/kg/day. The TD50 (rat, strain Fischer 344, males, in drinking water, site: thyroid gland, lesion: follicular-cell carcinoma, dosed 77 weeks, study length 77 weeks) was 34.8 mg/kg/day, the TD50 (rat, strain Fischer 344, males, in drinking water, site: thyroid gland, lesion: follicular-cell carcinoma, dosed 100 weeks, study length 100 weeks) was 62.9 mg/kg/day and the TD50 (rat, strain Fischer 344, males, in drinking water, site: thyroid gland, lesion: several types, types named in the paper, dosed 77 weeks, study length 77 weeks) was 21.8 mg/kg/day. The TD50 (rat, strain Fischer 344, males, in drinking water, site: thyroid gland, lesion: several types, types named in the paper, dosed 100 weeks, study length 100 weeks) was 22.2 mg/kg/day, the TD50 (rat, strain Fischer 344, males, in drinking water, site: tunica vaginalis, lesion: mesothelioma, dosed 52 weeks, study length 52 weeks) was 36.1 mg/kg/day and the TD50 (rat, strain Fischer 344, males, in drinking water, site: tunica vaginalis, lesion: mesothelioma, dosed 77 weeks, study length 77 weeks) was 15.3 mg/kg/day. For the same compound, the TD50 (rat, strain Fischer 344, males, in drinking water, site: tunica vaginalis, lesion: mesothelioma, dosed 100 weeks, study length 100 weeks) was 11.1 mg/kg/day.
